Source: patent US11192967B1, “Thermosetting polyimides derived from resveratrol” (The United States of America, as represented by the …, priority 2017, dated 2021)
Read-outs that look alike come from different tables or passages of the source.

Assays:
Mutagenicity (Ames test) = type: cell-based
Experimental: (§1) Toxicity Testing. In vitro toxicity tests were conducted for compounds 1-3.

Aquatic toxicity = settings: for Aquatic toxicity (in words): 1 and 2 compared to MDA
Experimental: as §1

LD50 (toxicity testing) = settings: listed among in vitro toxicity test results
In vitro cytotoxicity = type: cell-based; settings: concentration at which cytotoxicity was observed; solubility limit 10 μg/mL for 3
Experimental: as §1

Row | Structure (SMILES) | Mutagenicity (Ames test) (Mutagenicity (Ames test)) | Aquatic Toxicity (Aquatic toxicity) | LD50 (LD50 (toxicity testing)) | Cytotoxicity (In vitro cytotoxicity) | Aquatic toxicity (in words) (Aquatic toxicity) | LD50 (LD50 (toxicity testing); read-out: LD50) | Mutagenicity (Ames test) (Mutagenicity (Ames test); listed as Compound 3)
1 | Nc1ccc(Cc2ccc(N)cc2)cc1 [MDA, Methylene dianiline, reference compound] | Mutagenic | 14.30 mg/L | 944 mg/kg | – | – | – | –
2 | Nc1ccc(/C=C/c2cc(N)cc(N)c2)cc1 [compound 1, (E)-5-(4-aminostyryl)benzene-1,3-diamine] | Mutagenic | 1153 mg/L | – | >/=3.2 μg/mL | substantially reduced aquatic toxicity compared to MDA | 301 mg/kg | –
3 | Nc1ccc(CCc2cc(N)cc(N)c2)cc1 [compound 2] | Mutagenic | 52.7 mg/L | – | >/=3.2 μg/mL | substantially reduced aquatic toxicity compared to MDA | 820 mg/kg | –
4 | Nc1ccc(Oc2ccc(CCc3cc(Oc4ccc(N)cc4)cc(Oc4ccc(N)cc4)c3)cc2)cc1 [compound 3] | Not mutagenic | >2000 mg/L | – | None observed | remarkably low aquatic toxicity | 568 mg/kg | not mutagenic
